Data taken from patent publication US11306078B2, “Piperidine CXCR7 receptor modulators” (IDORSIA PHARMACEUTICALS LTD., priority 2016, dated 2022).

These compounds were tested against human chemokine receptor CXCR7 (Homo sapiens (Human), UniProt P25106) (assay: Tango CXCR7-bla U2OS beta-arrestin recruitment assay (beta-lactamase reporter, FRET), antagonism of CXCL12/SDF1-α). Details: antagonistic effect on CXCR7; Tango CXCR7-bla U2OS cells, CXCL12/SDF1-α at its EC80.
Format: cell-based
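Note: compounds preincubated 15 min before CXCL12 addition, then 22 h at 37 °C, FRET emission ratio read with CCF4-AM substrate after 2 h.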

human chemokine receptor CXCR7, sequence (P25106 whole entry): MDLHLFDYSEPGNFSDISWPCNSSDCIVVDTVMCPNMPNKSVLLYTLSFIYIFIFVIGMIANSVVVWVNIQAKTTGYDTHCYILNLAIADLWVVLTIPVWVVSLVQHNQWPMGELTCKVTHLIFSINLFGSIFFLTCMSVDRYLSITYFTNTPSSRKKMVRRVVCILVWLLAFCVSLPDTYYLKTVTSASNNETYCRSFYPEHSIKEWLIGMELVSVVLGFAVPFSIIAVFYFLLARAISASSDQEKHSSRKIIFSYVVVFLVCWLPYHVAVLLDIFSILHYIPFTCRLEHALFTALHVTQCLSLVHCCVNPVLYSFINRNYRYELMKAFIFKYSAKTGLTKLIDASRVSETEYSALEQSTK

Structure (SMILES) | IC50 [nM]
C[C@@H](NC(=O)[C@@H]1CN(CC2CC2)CC[C@H]1NC(=O)c1cc(-c2c(F)cc(F)cc2F)on1)C1CCC1 (relative stereo) [Example 1.139, (3R*,4R*)-1-Cyclopropylmethyl-4-{[5-(2,4,6-trifluoro-phenyl)-isoxazole-3-carbonyl]-amino}-piperidine-3-carboxylic acid ((R)-1-cyclobutyl-ethyl)-amide] | 50
C[C@@H](NC(=O)[C@@H]1CN(C2CCCC2)CC[C@H]1NC(=O)c1cc(-c2ccc(F)cc2F)no1)C1CCC1 (relative stereo) [Example 1.141, (3R*,4R*)-1-Cyclopentyl-4-{[3-(2,4-difluoro-phenyl)-isoxazole-5-carbonyl]-amino}-piperidine-3-carboxylic acid ((R)-1-cyclobutyl-ethyl)-amide] | 379
C[C@@H](NC(=O)[C@@H]1CN(CC2CC2)CC[C@H]1NC(=O)c1cc(-c2ccc(F)cc2F)no1)c1ccccn1 (relative stereo) [Example 1.154, (3R*,4R*)-1-Cyclopropylmethyl-4-{[3-(2,4-difluoro-phenyl)-isoxazole-5-carbonyl]-amino}-piperidine-3-carboxylic acid ((R)-1-pyridin-2-yl-ethyl)-amide] | 54
C[C@@H]1CCC[C@H]1N1CC[C@@H](NC(=O)c2cc(-c3ccc(F)cc3F)no2)[C@H](C(=O)N[C@H](C)c2ccccn2)C1 (relative stereo) [Example 1.155, (3R*,4R*)-4-{[3-(2,4-Difluoro-phenyl)-isoxazole-5-carbonyl]-amino}-1-((1RS,2RS)-2-methyl-cyclopentyl)-piperidine-3-carboxylic acid ((R)-1-pyridin-2-yl-ethyl)-amide] | 315
C[C@@H](NC(=O)[C@@H]1CN(C2CCCCC2)CC[C@H]1NC(=O)c1noc(-c2ccc(F)cc2F)n1)c1ccccn1 (relative stereo) [Example 1.156, (3R*,4R*)-1-Cyclohexyl-4-{[5-(2,4-difluoro-phenyl)-[1,2,4]oxadiazole-3-carbonyl]-amino}-piperidine-3-carboxylic acid ((R)-1-pyridin-2-yl-ethyl)-amide] | 92
O=C(N[C@@H]1CCN(C2CCCCC2)C[C@H]1C(=O)N[C@H]1C[C@@H]1c1ccccc1)c1cc(-c2c(F)cc(F)cc2F)on1 (single isomer, unassigned) [Example 1.046a] | 474
CN(C)C(=O)[C@@H]1CN(C2CCCCC2)CC[C@H]1NC(=O)c1cn(-c2ccc(F)cc2F)nn1 (single isomer, unassigned) [Example 1.095a, (3R,4R)-1-Cyclohexyl-4-{[1-(2,4-difluoro-phenyl)-1H-[1,2,3]triazole-4-carbonyl]-amino}-piperidine-3-carboxylic acid dimethylamide or (3S,4S)-1-Cyclohexyl-4-{[1-(2,4-difluoro-phenyl)-1H-[1,2,3]triazole-4-carbonyl]-amino}-piperidine-3-carboxylic acid dimethylamide] | 129
COCC(C)(C)NC(=O)[C@@H]1CN(C2CCCCC2)CC[C@H]1NC(=O)c1cc(-c2c(F)cc(F)cc2F)on1 (single isomer, unassigned) [Example 1.111a, (3R*,4R*)-1-Cyclohexyl-4-{[5-(2,4,6-trifluoro-phenyl)-isoxazole-3-carbonyl]-amino}-piperidine-3-carboxylic acid (2-methoxy-1,1-dimethyl-ethyl)-amide] | 944

The remaining lines, values ahead:

IC50 [nM] | Structure (SMILES)
131 | C[C@@H](NC(=O)[C@@H]1CN(C2CCCC2)CC[C@H]1NC(=O)c1noc(-c2ccc(F)cc2F)n1)c1ccccn1 (relative stereo) [Example 1.157, (3R*,4R*)-1-Cyclopentyl-4-{[5-(2,4-difluoro-phenyl)-[1,2,4]oxadiazole-3-carbonyl]-amino}-piperidine-3-carboxylic acid ((R)-1-pyridin-2-yl-ethyl)-amide]
82 | C[C@@H](NC(=O)[C@@H]1CN(CC2CC2)CC[C@H]1NC(=O)c1noc(-c2ccc(F)cc2F)n1)c1ccccn1 (relative stereo) [Example 1.158, (3R*,4R*)-1-Cyclopropylmethyl-4-{[5-(2,4-difluoro-phenyl)-[1,2,4]oxadiazole-3-carbonyl]-amino}-piperidine-3-carboxylic acid ((R)-1-pyridin-2-yl-ethyl)-amide]
818 | C[C@@H](NC(=O)[C@@H]1CN(CC2CC2)CC[C@H]1NC(=O)c1cc(-c2ccc(F)cc2F)no1)c1cnccn1 (relative stereo) [Example 1.159, (3R*,4R*)-1-Cyclopropylmethyl-4-{[3-(2,4-difluoro-phenyl)-isoxazole-5-carbonyl]-amino}-piperidine-3-carboxylic acid ((R)-1-pyrazin-2-yl-ethyl)-amide]
105 | C[C@@H](NC(=O)[C@@H]1CN(CC2CC2)CC[C@H]1NC(=O)c1cc(-c2ccc(F)cc2F)no1)C1CCC1 (relative stereo) [Example 1.161, (3R*,4R*)-1-Cyclopropylmethyl-4-{[3-(2,4-difluoro-phenyl)-isoxazole-5-carbonyl]-amino}-piperidine-3-carboxylic acid ((R)-1-cyclobutyl-ethyl)-amide]
638 | C[C@@H]1CCC[C@H]1N1CC[C@@H](NC(=O)c2cc(-c3ccc(F)cc3F)no2)[C@H](C(=O)N[C@H](C)C2CCC2)C1 (relative stereo) [Example 1.162, (3R*,4R*)-4-{[3-(2,4-Difluoro-phenyl)-isoxazole-5-carbonyl]-amino}-1-((1RS,2RS)-2-Methyl-cyclopentyl)-piperidine-3-carboxylic acid ((R)-1-cyclobutyl-ethyl)-amide]
728 | C[C@@H]1CCC[C@H]1N1CC[C@@H](NC(=O)c2cn(-c3ccc(F)cc3F)nn2)[C@H](C(=O)NC2(c3ccccn3)CC2)C1 (relative stereo) [Example 1.168, (3R*,4R*)-4-{[1-(2,4-Difluoro-phenyl)-1H-[1,2,3]triazole-4-carbonyl]-amino}-1-((1RS,2RS)-2-Methyl-cyclopentyl)-piperidine-3-carboxylic acid (1-pyridin-2-yl-cyclopropyl)-amide]
72 | C[C@@H]1CCC[C@H]1N1CC[C@@H](NC(=O)c2cc(-c3c(F)cc(F)cc3F)on2)[C@H](C(=O)NC2(c3ccccn3)CC2)C1 (relative stereo) [Example 1.172, (3R*,4R*)-1-((1RS,2RS)-2-Methyl-cyclopentyl)-4-{[5-(2,4,6-trifluoro-phenyl)-isoxazole-3-carbonyl]-amino}-piperidine-3-carboxylic acid (1-pyridin-2-yl-cyclopropyl)-amide]
673 | C[C@@H]1CCC[C@H]1N1CC[C@@H](NC(=O)c2cc(-c3ccc(F)cc3F)no2)[C@H](C(=O)NC2(c3ccccn3)CC2)C1 (relative stereo) [Example 1.175, (3R*,4R*)-4-{[3-(2,4-Difluoro-phenyl)-isoxazole-5-carbonyl]-amino}-1-((1RS,2RS)-2-Methyl-cyclopentyl)-piperidine-3-carboxylic acid (1-pyridin-2-yl-cyclopropyl)-amide]
368 | C[C@@H](NC(=O)[C@]1(C)CN(C2CCCCC2)CC[C@H]1NC(=O)c1cc(-c2ccc(F)cc2F)on1)c1ccccn1 (relative stereo) [Example 5.001, (3R*,4R*)-1-Cyclohexyl-4-{[5-(2,4-difluoro-phenyl)-isoxazole-3-carbonyl]-amino}-3-methyl-piperidine-3-carboxylic Acid ((R)-1-pyridin-2-yl-ethyl)-amide]
